From patent publication US12459930B2, “Compounds for the inhibition of unregulated cell growth” (GODAVARI BIOREFINERIES LIMITED, priority 2018, dated 2025)

What was measured:
[1] = test system: MDAMB231 breast cancer cell line; experiment: In vitro antiproliferative assay (MTT assay), MDAMB231; format: cell-based; conditions: Homo sapiens, MDA-MB-231, 48 h, 48 hrs drug incubation, read-out: IC50 in micromolar, MDAMB231 (MTT assay)
How it was run: (§1)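 Compound exposure lasted 48 h at 37 °C in 5% CO2, following a 24 h attachment period; DMSO stocks were 0.1 M. Metabolic reduction of MTT (0.5 mg/ml, 4 h), solubilized in DMSO, gave viability, plotted as log % viability versus log drug concentration.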

[2] = test system: PC3 prostate cancer cell line; experiment: In vitro antiproliferative assay (MTT assay), PC3; format: cell-based; conditions: 48 h, 48 hrs drug incubation, read-out: IC50 in micromolar, PC3 (MTT assay)
How it was run: as §1

[3] = test system: DU145 prostate cancer cell line; experiment: In vitro antiproliferative assay (MTT assay), DU145; format: cell-based; conditions: Homo sapiens, DU-145, 48 h, 48 hrs drug incubation, read-out: IC50 in micromolar, DU145 (MTT assay)
How it was run: as §1

[4] = test system: MDAMB231 breast cancer cell line; experiment: Soft agar colony-formation assay, MDAMB231; format: cell-based; conditions: Homo sapiens, MDA-MB-231, 168 h, 1 week, Alamar Blue, read-out: IC50 in micromolar, MDAMB231 (Soft Agar Assay)
How it was run: (§2)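 Cells were embedded with drug in a top soft-agar layer over an agar base in 96-well format. Colonies grew for 1 week at 37 °C, 5% CO2, with medium feeding at day 3. Alamar Blue was added for 24 h, absorbance read at 630 nm, and log percent viability plotted against log drug concentration.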

[5] = test system: PC3 prostate cancer cell line; experiment: Soft agar colony-formation assay, PC3; format: cell-based; conditions: 168 h, 1 week, Alamar Blue, read-out: IC50 in micromolar, PC3 (Soft Agar Assay)
How it was run: as §2

[6] = test system: PC3 spheres (cancer stem cells); experiment: In vitro sphere-forming assay (cancer stem cells), PC3 in Prostosphere media; conditions: for 3D sphere count of PC3 in Prostosphere media: 2000 cells/well, n = 6 ± S.D; for viability at 0.0025 µM: read-out: % Viability of spheres (PC3), 0.0025 uM; for viability at 0.0025 µM / viability at 0.025 µM / viability at 0.25 µM / viability at 2.5 µM / viability at 25 µM: GCD = 100% viability; for viability at 0.025 µM: read-out: % Viability of spheres (PC3), 0.025 uM; for viability at 0.25 µM: read-out: % Viability of spheres (PC3), 0.25 uM; for viability at 2.5 µM: read-out: % Viability of spheres (PC3), 2.5 uM; for viability at 25 µM: read-out: % Viability of spheres (PC3), 25 uM
Description: In Vitro Sphere-forming Assay: Sphere assay measures the ability of cancer stem cells (CSCs) to form spheres in specially designed serum-free medium.
Materials and Reagents:50×B27 Supplement (Life Technologies, Invitrogen, Catlog No.: 17502-044), Fibroblast Growth Factor (FGF) (Sigma-Aldrich, Catlog No.: F029125), Epidermal Growth Factor (EGF) (Sigma-Aldrich, Catlog No.: E9644), Insulin (Sigma, Catlog No.: 19278), Dulbecco's Modified Eagle Medium/F12 (HiMedia Catlog No.: AL139-6), Dulbecco's Phosphate Buffered Saline (HiMedia Catlog No.: TL1006), Trypan Blue (TC193), Prostate Epithelial Media (LONZA, Catlog No.: CC-3166) MEGM (LONZA, Catlog No.: CC-3051), Heparin (Sigma, Catlog No.: H3393), Penstrep (HiMedia, Catlog No.: A002)
Prostosphere Media Preparation (For 100 mL): 1 g methyl cellulose autoclaved with magnetic stirrer, 100 mL plain media (Prostate Epithelial Basal Medium) was added and dissolved, under magnetic stirring. After complete dissolution, Insulin—40 μL, B27—2 mL, EGF—80 μL, Penstrep—1 ml was added.
Procedure—The cells were trypsinised and made into single-cell suspension by passing through cell strainers (100 μl and 40 μl, respectively), The cells were diluted at a concentration of 2000 cells/100 μL and suspended in either Mammosphere (for breast cell lines) or Prostosphere (for prostate cell lines). 100 μL of this suspension was added into each well of 96-well suspension plates and incubated at 37 C, 50 CO2 for 24 hrs. Appropriate concentrations of the drugs (2 L) were added into respective wells with 100 μL of stem cell culture medium. Plates were incubated at 37° C., 50% CO2 for 72 hrs. After incubation, 2.5 μL of the respective drug concentration and 50 μL of stem cell culture medium were added into each well and the plates were further incubated at 37° C., 500 CO2 for 72 hrs. 3 μL of the respective drug concentration was added with 50 μL of stem cell culture medium again after incubation and plates were reincubated for 72 hrs at 37° C., 500 CO2. Number of primary spheres formed for each concentration were counted. The spheres were converted to 0 viability of spheres compared to untreated (Growth Control with DMSO, GCD).

[7] = test system: MDAMB231 spheres (cancer stem cells); experiment: In vitro sphere-forming assay (cancer stem cells), MDAMB231 in Mammosphere media; conditions: for 3D sphere count of MDAMB231 in Mammosphere media: 2000 cells/well, n = 6 ± S.D; for viability at 0.0025 µM / viability at 0.025 µM / viability at 0.25 µM / viability at 2.5 µM / viability at 25 µM: Homo sapiens, MDA-MB-231, read-out: % Viability of spheres (MDAMB231)

SMILES | IC50 [1] | IC50 [2] | IC50 [3] | IC50 [4] | IC50 [5] | 3D sphere count of PC3 in Prostosphere media ([6]; 0.0025 uM) | 3D sphere count of PC3 in Prostosphere media ([6]; 0.025 uM) | 3D sphere count of PC3 in Prostosphere media ([6]; 0.25 uM) | 3D sphere count of PC3 in Prostosphere media ([6]; 2.5 uM) | 3D sphere count of PC3 in Prostosphere media ([6]; 25 uM) | viability at 0.0025 µM [6] | viability at 0.025 µM [6] | viability at 0.25 µM [6] | viability at 2.5 µM [6] | viability at 25 µM [6] | 3D sphere count of MDAMB231 in Mammosphere media ([7]; 0.0025 uM) | 3D sphere count of MDAMB231 in Mammosphere media ([7]; 0.025 uM) | 3D sphere count of MDAMB231 in Mammosphere media ([7]; 0.25 uM) | 3D sphere count of MDAMB231 in Mammosphere media ([7]; 2.5 uM) | 3D sphere count of MDAMB231 in Mammosphere media ([7]; 25 uM) | further results
O=C1OCc2c1c(-c1ccc3c(c1)OCO3)c1cc3c(cc1c2OCCCCN1CCOCC1)OCO3 [Formula XIII, 4-(4-morpholinobutoxy)-9-(benzo[d][1,3]dioxol-5-yl)-6,7-methylenedioxynaphtho[2,3-c]furan-1(3H)-one] | 7.29 µM | 8.83 µM | 8.85 µM | 3.03 µM | 3.84 µM | 49(±3) | 44(±4) | 35(±3) | 32(±3) | 27(±3) | 62% | 55% | 44% | 40% | 34% | 49(±3) | 40(±3) | 36(±2) | 30(±4) | 21(±3) | viability at 0.0025 µM [7]: 62%; viability at 0.025 µM [7]: 50%; viability at 0.25 µM [7]: 45%; viability at 2.5 µM [7]: 38%; viability at 25 µM [7]: 26%
c1ccc2c(-c3ccc4c(c3)OCO4)ccc(OCCCCNC3CCCCC3)c2c1 [Formula XIV, N-(4-(1-(benzo[d][1,3]dioxol-5-yl)naphthalen-4-yloxy)butyl)cyclohexan amine] | 0.308 µM | 0.346 µM | 0.532 µM | 2.8 µM | 0.4 µM | 56(±3) | 44(±5) | 39(±5) | 24(±3) | 13(±3) | 64% | 51% | 45% | 28% | 15% | 47(±3) | 43(±3) | 21(±7) | 21(±3) | 7(±3) | viability at 0.0025 µM [7]: 57%; viability at 0.025 µM [7]: 52%; viability at 0.25 µM [7]: 26%; viability at 2.5 µM [7]: 26%; viability at 25 µM [7]: 9%
CN1CCN(CCCCOc2ccc(-c3ccc4c(c3)OCO4)c3c2CCCC3)CC1 [Formula XIX, 1-(4-(5-(benzo[d][1,3]dioxol-5-yl)-1,2,3,4-tetrahydronaphthalen-8-yloxy)butyl)-4-methylpiperazine] | 2.14 µM | 3.71 µM | 2.04 µM | 3.41 µM | 5.12 µM | 51(±3) | 40(±3) | 35(±3) | 25(±3) | 13(±2) | 62% | 48% | 42% | 30% | 15% | 48(±4) | 40(±4) | 34(±3) | 23(±5) | 13(±2) | viability at 0.0025 µM [7]: 61%; viability at 0.025 µM [7]: 50%; viability at 0.25 µM [7]: 43%; viability at 2.5 µM [7]: 29%; viability at 25 µM [7]: 16%
c1cc2c(cc1-c1ccc(OCCCCCCNC3CCCCC3)c3c1CCCC3)OCO2 [Formula XVIII, N-(6-(5-(benzo[d][1,3]dioxol-5-yl)-1,2,3,4-tetrahydronaphthalen-8-yloxy)hexyl) cyclohexanamine] | 0.398 µM | 0.32 µM | 0.348 µM | 4.18 µM | 2.63 µM | 50(±4) | 43(±5) | 39(±3) | 27(±4) | 19(±3) | 63% | 54% | 49% | 34% | 24% | 54(±3) | 49(±4) | 39(±2) | 28(±3) | 19(±1) | viability at 0.0025 µM [7]: 65%; viability at 0.025 µM [7]: 58%; viability at 0.25 µM [7]: 45%; viability at 2.5 µM [7]: 34%; viability at 25 µM [7]: 24%
c1cc2c(cc1-c1ccc(OCCCCCCN3CCOCC3)c3c1CCCC3)OCO2 [Formula XX, 4-(6-(5-(benzo[d][1,3]dioxol-5-yl)-1,2,3,4-tetrahydronaphthalen-8-yloxy)hexyl) morpholine] | 3.04 µM | 3.34 µM | 3.87 µM | 3.78 µM | 3.31 µM | 48(±5) | 37(±2) | 33(±4) | 15(±3) | 0(±0) | 58% | 45% | 40% | 18% | 0% | 48(±4) | 37(±4) | 27(±3) | 14(±4) | 0(±0) | viability at 0.0025 µM [7]: 61%; viability at 0.025 µM [7]: 47%; viability at 0.25 µM [7]: 34%; viability at 2.5 µM [7]: 17%; viability at 25 µM [7]: 0%
